Reference: US8431704B2, “Quinoline or isoquinoline substituted P2X7 antagonists” (Janssen Pharmaceutica NV, priority 2008, dated 2013)

Biological target: T1, hP2X7 (Homo sapiens, UniProt Q99572)
T1 construct: expressed in transfected cells; host or cells: 1321N1 astrocytoma cells
T1 sequence (Q99572 1-595): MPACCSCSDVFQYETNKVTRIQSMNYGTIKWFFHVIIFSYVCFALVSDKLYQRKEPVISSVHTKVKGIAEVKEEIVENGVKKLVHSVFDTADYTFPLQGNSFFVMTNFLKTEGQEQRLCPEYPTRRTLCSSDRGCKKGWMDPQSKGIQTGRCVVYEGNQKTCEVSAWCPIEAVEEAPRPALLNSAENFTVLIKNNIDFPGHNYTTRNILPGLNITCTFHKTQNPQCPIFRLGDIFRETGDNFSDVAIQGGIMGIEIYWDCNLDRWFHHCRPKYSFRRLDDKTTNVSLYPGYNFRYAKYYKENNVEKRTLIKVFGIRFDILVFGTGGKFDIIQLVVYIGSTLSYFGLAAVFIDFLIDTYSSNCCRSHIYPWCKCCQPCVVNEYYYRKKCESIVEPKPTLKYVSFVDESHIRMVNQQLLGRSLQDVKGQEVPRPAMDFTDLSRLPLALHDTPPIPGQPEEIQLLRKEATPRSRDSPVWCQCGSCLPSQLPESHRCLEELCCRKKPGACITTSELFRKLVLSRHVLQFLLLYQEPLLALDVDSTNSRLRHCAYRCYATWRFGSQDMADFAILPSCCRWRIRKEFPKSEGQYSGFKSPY
Assay: P2X7 antagonism: ligand-induced Ca2+ flux in 1321N1 astrocytoma cells overexpressing hP2X7
Type: cell-based
Details: pIC50 = -log(IC50), read-out: hP2RX7pIC50 (mean pIC50 values) (converted)
Protocol: Extracellular binding of ATP to P2X7 that is expressed in the cell-membrane opens the ligand gated cation channel and allows Ca^2+ entry into the cell. This ligand-induced Ca^2+ flux was measured in 1321N1 astrocytoma cells overexpressing hP2X7 for the compounds of the present invention.
The calcium assay kit used (Molecular Devices, R8090), provides a Ca^2+ sensitive dye together with a quenching dye. However, no specifications are given by the manufacturer. The kit most likely consists of a membrane permeable acetoxymethyl (AM) ester of a fluorescent Ca^2+ indicator, such as fluo-4 or fluo-3. Upon cellular uptake, the AM esters get cleaved by esterases, liberating the Ca^2+-sensitive dye which can then bind calcium. The dyes have an absorption spectrum compatible with excitation at 488 nm by argon laser sources and a large fluorescence intensity increase in response to Ca^2+ binding without an accompanying spectral shift. Emission wavelength is in the range of 510-560 nm.
The fluorescence, and thus the changes in intracellular [Ca^2+] in the 1321N1 cells was monitored in time before and after addition of the agonist. The effect of the antagonist was measured as % control and as IC50.

SMILES: Cc1ncc(C(CNC(=O)c2cccc3nc(N4CCCCC4)ccc23)N2CCOCC2)cn1 (stereo not shown) [Compound 98]
- IC50: 52.5 nM

SMILES: CC(C)(C)OC(=O)N1CCN(c2ccc3c(C(=O)NCC(c4cnc(C(F)(F)F)nc4)N4CCCCCC4)cccc3n2)CC1 (stereo not shown) [Compound 107]
- IC50: 389 nM

SMILES: O=C(NCC(c1cnc(C(F)(F)F)nc1)N1CCCCCC1)c1cccc2nc(N3CCNCC3)ccc12 (stereo not shown) [Compound 109]
- IC50: 22.4 nM

SMILES: CCN1CCN(c2ccc3c(C(=O)NCC(c4cnc(C)nc4)N4CCOCC4)cccc3n2)CC1 (stereo not shown) [Compound 116]
- IC50: 186 nM

SMILES: Cc1ncc(C(CNC(=O)c2cccc3nc(OC(C)C)ccc23)N2CCOCC2)cn1 (stereo not shown) [Compound 117]
- IC50: 182 nM

SMILES: Cc1ncc(C(CNC(=O)c2cccc3nc(N4CCN(C(C)C)CC4)ccc23)N2CCOCC2)cn1 (stereo not shown) [Compound 118]
- IC50: 162 nM

SMILES: Cc1ncc(C(CNC(=O)c2cccc3nc(N4CCCCCC4)ccc23)N2CCOCC2)cn1 (stereo not shown) [Compound 119]
- IC50: 89.1 nM

SMILES: CCOc1ccc2c(C(=O)NCC(c3cnc(C)nc3)N3CCOCC3)cccc2n1 (stereo not shown) [Compound 121]
- IC50: 251 nM

SMILES: Cc1ncc(C(CNC(=O)c2cccc3nc(N4CCOCC4)ccc23)N2CCOCC2)cn1 (stereo not shown) [Compound 122]
- IC50: 115 nM

SMILES: O=C(NCC(c1cnc(C(F)(F)F)nc1)N1CCCC(F)(F)C1)c1cccc2nc(N3CCNCC3)ccc12 (stereo not shown) [Compound 127]
- IC50: 14.1 nM

SMILES: O=C(NCC(c1cnc(C(F)(F)F)nc1)N1CCCOCC1)c1cccc2nc(N3CCNCC3)ccc12 (stereo not shown) [Compound 128]
- IC50: 46.8 nM

SMILES: Cc1ncc(C(CNC(=O)c2cccc3nc(NCCCO)ccc23)N2CCC(F)(F)CC2)cn1 (stereo not shown) [Compound 132]
- IC50: 63.1 nM

SMILES: O=C(NCC(c1cnc(O)nc1)N1CCC(F)(F)CC1)c1cccc2nc(N3CCOCC3)ccc12 (stereo not shown) [Compound 144]
- IC50: 1050 nM

SMILES: O=C(NCC(c1cnc(C(F)(F)F)nc1)N1CCC(F)(F)CC1)c1cccc2nc(NCC3CCOCC3)ccc12 (stereo not shown) [Compound 146]
- IC50: 47.9 nM

SMILES: O=C(NCC(c1cnc(C(F)(F)F)nc1)N1CCC(F)CC1)c1cccc2nc(N3CC(O)C3)ccc12 (stereo not shown) [Compound 155]
- IC50: 64.6 nM

SMILES: COC1CCN(c2ccc3c(C(=O)NCC(c4cnc(C(F)(F)F)nc4)N4CCOCC4)cccc3n2)CC1 (stereo not shown) [Compound 161]
- IC50: 46.8 nM

SMILES: O=C(NCC(c1cnc(C(F)(F)F)nc1)N1CCOCC1)c1cccc2nc(N3CCCC3)ccc12 (stereo not shown) [Compound 162]
- IC50: 45.7 nM

SMILES: O=C(NCC(c1cnc(C(F)(F)F)nc1)N1CCOCC1)c1cccc2nc(N3CCCCC3)ccc12 (stereo not shown) [Compound 163]
- IC50: 37.2 nM

SMILES: CCOc1ccc2c(C(=O)NCC(c3cnc(C(F)(F)F)nc3)N3CCOCC3)cccc2n1 (stereo not shown) [Compound 166]
- IC50: 49 nM

SMILES: NC1CCN(c2ccc3c(C(=O)NCC(c4cnc(C(F)(F)F)nc4)N4CCOCC4)cccc3n2)CC1 (stereo not shown) [Compound 167]
- IC50: 117 nM

SMILES: CC(C)Nc1ccc2c(C(=O)NCC(c3cnc(C(F)(F)F)nc3)N3CCOCC3)cccc2n1 (stereo not shown) [Compound 168]
- IC50: 75.9 nM

SMILES: O=C(NC[C@H](c1cnc(C(F)(F)F)nc1)N1CCC(F)(F)CC1)c1cccc2nc(N3CCNCC3)ccc12 [Compound 171]
- IC50: 26.9 nM

SMILES: O=C(NCC(c1cnc(C(F)(F)F)nc1)N1CCOCC1)c1cccc2nc(N3CCC(O)C3)ccc12 (stereo not shown) [Compound 172]
- IC50: 145 nM

SMILES: O=C(NCC(c1cnc(C(F)(F)F)nc1)N1CCOCC1)c1cccc2nc(N3CCN(C4CC4)CC3)ccc12 (stereo not shown) [Compound 173]
- IC50: 70.8 nM

SMILES: O=C(NC[C@@H](c1cnc(C(F)(F)F)nc1)N1CCC(F)(F)CC1)c1cccc2nc(NC3CC3)ccc12 [Compound 175]
- IC50: 44.7 nM

SMILES: O=C(NCC(c1cnc(N2CCCC2)nc1)N1CCC(F)(F)CC1)c1cccc2nc(N3CCOCC3)ccc12 (stereo not shown) [Compound 176]
- IC50: 186 nM

SMILES: O=C(NCC(c1cnc(C(F)(F)F)nc1)N1CCOCC1)c1cccc2nc(N3CCC(F)(F)CC3)ccc12 (stereo not shown) [Compound 177]
- IC50: 47.9 nM

SMILES: O=C(NCC(c1cnc(C(F)(F)F)nc1)N1CCOCC1)c1cccc2nc(N3CCCOCC3)ccc12 (stereo not shown) [Compound 178]
- IC50: 91.2 nM

SMILES: O=C(NCC(c1cnc(C(F)(F)F)nc1)N1CCOCC1)c1cccc2nc(NC3CCCC3)ccc12 (stereo not shown) [Compound 179]
- IC50: 89.1 nM

SMILES: CC(C)CNc1ccc2c(C(=O)NCC(c3cnc(C(F)(F)F)nc3)N3CCOCC3)cccc2n1 (stereo not shown) [Compound 180]
- IC50: 67.6 nM

SMILES: CC(C)N1CCN(c2ccc3c(C(=O)NCC(c4cnc(C(F)(F)F)nc4)N4CCOCC4)cccc3n2)CC1 (stereo not shown) [Compound 181]
- IC50: 93.3 nM

SMILES: CC(C)OCCCNc1ccc2c(C(=O)NCC(c3cnc(C(F)(F)F)nc3)N3CCOCC3)cccc2n1 (stereo not shown) [Compound 182]
- IC50: 112 nM

SMILES: O=C(NCC(c1cnc(C(F)(F)F)nc1)N1CCOCC1)c1cccc2nc(NC3CCC3)ccc12 (stereo not shown) [Compound 183]
- IC50: 53.7 nM

SMILES: CCCNc1ccc2c(C(=O)NCC(c3cnc(C(F)(F)F)nc3)N3CCOCC3)cccc2n1 (stereo not shown) [Compound 184]
- IC50: 61.7 nM

SMILES: COCCCNc1ccc2c(C(=O)NCC(c3cnc(C(F)(F)F)nc3)N3CCOCC3)cccc2n1 (stereo not shown) [Compound 185]
- IC50: 129 nM

SMILES: Nc1ncc(C(CNC(=O)c2cccc3nc(N4CCOCC4)ccc23)N2CCC(F)(F)CC2)cn1 (stereo not shown) [Compound 187]
- IC50: 87.1 nM

SMILES: CN(C)c1ncc(C(CNC(=O)c2cccc3nc(N4CCOCC4)ccc23)N2CCC(F)(F)CC2)cn1 (stereo not shown) [Compound 188]
- IC50: 69.2 nM

SMILES: O=C(NCC(c1cnc(NC2CC2)nc1)N1CCC(F)(F)CC1)c1cccc2nc(N3CCOCC3)ccc12 (stereo not shown) [Compound 189]
- IC50: 110 nM

SMILES: O=C(NCC(c1cnc(N2CCCC2)nc1)N1CCC(F)(F)CC1)c1cccc2nc(NC3CC3)ccc12 (stereo not shown) [Compound 190]
- IC50: 77.6 nM

SMILES: O=C(NCC(c1cnc(-c2ccccc2)nc1)N1CCC(F)(F)CC1)c1cccc2nc(N3CCOCC3)ccc12 (stereo not shown) [Compound 191]
- IC50: 64.6 nM

SMILES: COc1ncc(C(CNC(=O)c2cccc3nc(NC4CC4)ccc23)N2CCC(F)(F)CC2)cn1 (stereo not shown) [Compound 192]
- IC50: 55 nM

SMILES: O=C(NCC(c1cnc(-c2ccccc2)nc1)N1CCC(F)(F)CC1)c1cccc2nc(NC3CC3)ccc12 (stereo not shown) [Compound 193]
- IC50: 61.7 nM

SMILES: Nc1ncc(C(CNC(=O)c2cccc3nc(NC4CC4)ccc23)N2CCC(F)(F)CC2)cn1 (stereo not shown) [Compound 194]
- IC50: 178 nM

SMILES: CN(C)c1ncc(C(CNC(=O)c2cccc3nc(NC4CC4)ccc23)N2CCC(F)(F)CC2)cn1 (stereo not shown) [Compound 195]
- IC50: 72.4 nM

SMILES: CC(C)C1CCN(c2ccc3c(C(=O)NCC(c4cnc(C(F)(F)F)nc4)N4CCOCC4)cccc3n2)CC1 (stereo not shown) [Compound 196]
- IC50: 195 nM

SMILES: O=C(NCC(c1cnc(C(F)(F)F)nc1)N1CCOCC1)c1cccc2nc(N3CCN(CCO)CC3)ccc12 (stereo not shown) [Compound 197]
- IC50: 120 nM

SMILES: CN1CCN(c2ccc3c(C(=O)NCC(c4cnc(C(F)(F)F)nc4)N4CCOCC4)cccc3n2)CC1 (stereo not shown) [Compound 198]
- IC50: 77.6 nM

SMILES: CC(C)N1CCN(c2ccc3c(C(=O)NCC(c4cnc(N(C)C)nc4)N4CCOCC4)cccc3n2)CC1 (stereo not shown) [Compound 199]
- IC50: 407 nM

SMILES: COc1ncc(C(CNC(=O)c2cccc3nc(N4CCN(C(C)C)CC4)ccc23)N2CCC(F)(F)CC2)cn1 (stereo not shown) [Compound 200]
- IC50: 51.3 nM

SMILES: CC(C)N1CCN(c2ccc3c(C(=O)NCC(c4cnc(-c5ccccc5)nc4)N4CCC(F)(F)CC4)cccc3n2)CC1 (stereo not shown) [Compound 201]
- IC50: 115 nM

SMILES: O=C(NCC(c1cnc(N2CCNCC2)nc1)N1CCC(F)(F)CC1)c1cccc2nc(NC3CC3)ccc12 (stereo not shown) [Compound 202]
- IC50: 115 nM

SMILES: CC(C)N1CCN(c2ccc3c(C(=O)NCC(c4cnc(N5CCOCC5)nc4)N4CCC(F)(F)CC4)cccc3n2)CC1 (stereo not shown) [Compound 203]
- IC50: 67.6 nM

SMILES: O=C(NCC(c1cnc(OC2CCC2)nc1)N1CCC(F)(F)CC1)c1cccc2nc(N3CCCC3)ccc12 (stereo not shown) [Compound 204]
- IC50: 47.9 nM

SMILES: O=C(NCC(c1cnc(N2CCOCC2)nc1)N1CCC(F)(F)CC1)c1cccc2nc(NC3CC3)ccc12 (stereo not shown) [Compound 205]
- IC50: 64.6 nM

SMILES: CN(C)c1ncc(C(CNC(=O)c2cccc3nc(N4CCCC4)ccc23)N2CCC(F)(F)CC2)cn1 (stereo not shown) [Compound 206]
- IC50: 105 nM

SMILES: CCc1ncc(C(CNC(=O)c2cccc3nc(NC4CC4)ccc23)N2CCOCC2)cn1 (stereo not shown) [Compound 207]
- IC50: 138 nM

SMILES: O=C(NCC(c1cncnc1)N1CCC(F)(F)CC1)c1cccc2nc(N3CCCC3)ccc12 (stereo not shown) [Compound 208]
- IC50: 45.7 nM

SMILES: CC(C)N1CCN(c2ccc3c(C(=O)NCC(c4cnc(N(C)C)nc4)N4CCC(F)(F)CC4)cccc3n2)CC1 (stereo not shown) [Compound 209]
- IC50: 117 nM

SMILES: CC(C)c1ncc(C(CNC(=O)c2cccc3nc(N4CCCC4)ccc23)N2CCOCC2)cn1 (stereo not shown) [Compound 210]
- IC50: 372 nM

SMILES: O=C(NCC(c1cncnc1)N1CCC(F)(F)CC1)c1cccc2nc(NCC3CC3)ccc12 (stereo not shown) [Compound 211]
- IC50: 79.4 nM

SMILES: CCOc1ncc(C(CNC(=O)c2cccc3nc(N4CCCC4)ccc23)N2CCC(F)(F)CC2)cn1 (stereo not shown) [Compound 212]
- IC50: 41.7 nM
